PMC6213970, “Identification of Enolase as the Target of 2-Aminothiazoles in Mycobacterium tuberculosis” (Frontiers in Microbiology, 2018)

Target: T1, human α-enolase (Homo sapiens, UniProt P06733)
T1 construct: gene ENO1; commercial enzyme (Sigma)
Assay: pyruvate kinase-luciferase coupled assay (luminescence)
Format: biochemical
Conditions: 100 μM compound; 2-PG 0.2 mM (figure legend) or 0.5 mM (methods); 1 mM ADP, 10 mM MgSO4, 50 mM HEPES pH 7.0, 37°C, 1% DMSO

T1 sequence (P06733 2-434): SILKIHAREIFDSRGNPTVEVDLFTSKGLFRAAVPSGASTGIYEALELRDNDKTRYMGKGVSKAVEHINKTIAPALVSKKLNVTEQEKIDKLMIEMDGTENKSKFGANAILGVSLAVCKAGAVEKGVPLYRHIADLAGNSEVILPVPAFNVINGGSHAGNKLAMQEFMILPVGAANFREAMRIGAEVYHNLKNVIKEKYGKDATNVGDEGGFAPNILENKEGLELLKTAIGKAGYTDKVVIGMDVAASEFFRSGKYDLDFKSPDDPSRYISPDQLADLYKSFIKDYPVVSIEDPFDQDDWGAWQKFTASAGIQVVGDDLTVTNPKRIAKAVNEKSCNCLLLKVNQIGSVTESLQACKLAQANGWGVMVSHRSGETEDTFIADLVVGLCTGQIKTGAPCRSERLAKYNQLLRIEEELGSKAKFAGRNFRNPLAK

IDR-0106963
% inhibition at 100 μM: > 90%
